In brackets after ≈: the same amount, converted by molar mass.
conditions: buffer; pH 7.4; 200.0 µM

| SMILES | solubility kinetic |
| --- | --- |
| COc1ccc(-c2c(C#N)c(N)nc(Sc3ccc(Cl)cc3)c2C#N)cc1 | < 0.2 µg/mL |
| COc1ccc(CN2CCC(C(=O)c3ccc(F)cc3)CC2)cc1 | > 49.1 µg/mL |
| O=C(COC(=O)c1ccccn1)Nc1cccc2ccccc12 | > 45.9 µg/mL |
| O=C(CCc1nnc(-c2ccccc2)o1)NC1CCCCC1 | > 44.9 µg/mL |
| Cc1ccccc1C(=O)NCC(=O)O | > 29 µg/mL |
| CC1CN(C)C(C)CC1OC(=O)C(c1ccccc1)c1ccccc1 (centres undefined) | 42.1 µg/mL (≈ 125 µM) |
| Cc1cc(C(=O)NC(=S)Nc2cccc(C(=O)O)c2C)ccc1[N+](=O)[O-] | > 56 µg/mL |
| O=C(/C=C/c1ccccc1)Oc1cccc2cccnc12 | 20.2 µg/mL (≈ 73.4 µM) |
| COC(=O)c1sc(N2CCCCC2)c(C#N)c1N | 2.2 µg/mL (≈ 8.29 µM) |
| CC(=O)c1cccc(NC(=O)C2C3CCC(C3)C2C(=O)O)c1 (centres undefined) | 42.9 µg/mL (≈ 142 µM) |
| CC(OC(=O)C1=COCCO1)C(=O)Nc1ccc(Cl)cn1 (centres undefined) | > 46.9 µg/mL |
| Cc1ccc(N2C(=O)Nc3ccccc3S2(=O)=O)cc1Cl | 0.8 µg/mL (≈ 2.48 µM) |
| CN1C(=O)CSC1=Nc1ccc(F)cc1 | 28.7 µg/mL (≈ 128 µM) |
| Cc1cccc(-c2noc(CN(C)C(=O)c3ccoc3C)n2)c1 | 40.9 µg/mL (≈ 131 µM) |
| COc1ccc(-c2nc(C#N)c(N3CCC(C)CC3)o2)cc1 | 0.3 µg/mL (≈ 1.01 µM) |
| O=C1CSC(=S)N1c1cccc(Cl)c1 | 0.7 µg/mL (≈ 2.87 µM) |
| COc1ccccc1-c1noc(CCC(=O)NC2CCCC2)n1 | > 47.3 µg/mL |
| CCOc1ccccc1NC(=O)COC(=O)C1CC1 | > 39.5 µg/mL |
| C[C@H](NS(=O)(=O)c1ccccc1)C(=O)N1CCN(C(c2ccccc2)c2ccccc2)CC1 | 16.2 µg/mL (≈ 34.9 µM) |
| Cc1ccc(SCC(=O)O/N=C(\N)c2ccncc2)cc1 | 29.4 µg/mL (≈ 97.6 µM) |
| Cc1ccc(C(=O)Nc2ccccc2Cl)cc1 | 21 µg/mL (≈ 85.5 µM) |
| CC1CCCN(C(=O)CN2C(=O)C(C)Oc3ccccc32)C1 (centres undefined) | > 45.4 µg/mL |
| CN(C(=O)Nc1cnccc1C(F)(F)F)C1CCCCC1 | 41.1 µg/mL (≈ 136 µM) |
| Fc1ccc(C2Nc3cccc4cccc(c34)N2)cc1 | 3.2 µg/mL (≈ 12.1 µM) |

| SMILES | solubility kinetic |
| --- | --- |
| Cc1cccc2sc(NC(=O)C3CC3)nc12 | 1.4 µg/mL (≈ 6.03 µM) |
| CN1C(=O)C(=Cc2cn(CC#N)c3ccccc23)C(=O)N(C)C1=O | 8.1 µg/mL (≈ 25.1 µM) |
| CCC(=O)O/N=C(\N)c1ccc(Oc2cc(C)c(Cl)c(C)c2)c([N+](=O)[O-])c1 | < 0.3 µg/mL |
| O=C(O)CC(C(=O)Nc1ccc(Cl)cc1)N1CCCCCC1 (centres undefined) | > 48.7 µg/mL |
| COc1cc(S(=O)(=O)NCc2ccc3c(c2)OCO3)c(OC)cc1C | 53.9 µg/mL (≈ 148 µM) |
| CCC(=O)Nc1ccc2c(c1)N(C(C)=O)c1ccccc1CC2 | > 46.3 µg/mL |
| CCOc1ccccc1NC(=O)NCc1ccco1 | 9.8 µg/mL (≈ 37.6 µM) |
| O=C(O)COCC(=O)Nc1ccc2c(c1)oc1ccccc12 | > 44.9 µg/mL |
| Cc1cccc(C(=O)NCCCNC(=O)c2ccco2)c1 | > 42.9 µg/mL |
| Cc1ccccc1NC(=O)N1CCN(C/C=C/c2ccccc2)CC1 | > 50.3 µg/mL |
| COC(=O)c1ccc(Cn2cc(/C=C\[N+](=O)[O-])c3ccccc32)o1 | 1.6 µg/mL (≈ 4.9 µM) |
| CCOc1ccc(CNc2ncc(-c3ccccc3)n2C)cc1 | 26 µg/mL (≈ 84.6 µM) |
| O=C1c2cccc3cccc(c23)N1Cc1cccc(F)c1 | 2.6 µg/mL (≈ 9.38 µM) |
| CC(C)c1ccc(NS(=O)(=O)c2ccc(N3C(=O)CCC3=O)cc2)cc1 | 43.6 µg/mL (≈ 117 µM) |
| O=C(CCc1cccc(Cl)c1)N1CCCC(Nc2ccccc2)C1 (centres undefined) | 27.4 µg/mL (≈ 79.9 µM) |
| O=C(Nc1ccc(F)c(Cl)c1)N1CCCCCC1 | 5.8 µg/mL (≈ 21.4 µM) |
| CC(C)C(=O)NC(=S)Nc1ccc(S(=O)(=O)NC2CCCCC2)cc1 | 1 µg/mL (≈ 2.61 µM) |
| Cc1ccc(C(=O)OCC(=O)Nc2cc(C(C)(C)C)no2)c(C)c1 | 3.1 µg/mL (≈ 9.38 µM) |
| Cc1nn(-c2ccccn2)c(N)c1N=O | > 30.5 µg/mL |
| COc1ccc(Oc2ccccc2C#N)cc1 | 9.9 µg/mL (≈ 44 µM) |
| Cc1cc(/C=C(\C#N)C(=O)NCc2ccco2)c(C)n1-c1cccnc1 | 10.7 µg/mL (≈ 30.9 µM) |
| CC(=O)Oc1ccccc1C(=O)NC(C)CCc1ccccc1 (centres undefined) | > 46.7 µg/mL |
| Brc1ccsc1-c1csc(-c2ccncc2)n1 | 2.7 µg/mL (≈ 8.35 µM) |
| CC(NC(=O)c1ccccc1F)C1CC1 (centres undefined) | > 31.1 µg/mL |

| SMILES | solubility kinetic |
| --- | --- |
| Cc1c(-c2csc(N)n2)cnn1C | > 29.1 µg/mL |
| CC(=O)c1cnc(-c2ccccn2)s1 | 28.3 µg/mL (≈ 139 µM) |
| O=C(CCSCc1ccccc1F)NCCc1ccccc1 | 17.8 µg/mL (≈ 56.1 µM) |
| O=C(Nc1cccc2c1CCCC2)c1ccccc1F | 2.5 µg/mL (≈ 9.28 µM) |
| Cc1cccc2cc(C#N)c(N3CCC(O)CC3)nc12 | 34.3 µg/mL (≈ 128 µM) |
| CCOc1ccc(C2/C(=C(/O)c3ccc4c(c3)CC(C)O4)C(=O)C(=O)N2CC2CCCO2)cc1 (centres undefined) | 61.8 µg/mL (≈ 133 µM) |
| NC(=NCCc1ccccc1)NS(=O)(=O)c1ccccc1F | > 48.2 µg/mL |
| CSc1ncc(Cl)c(C(=O)Nc2ccc(NC(C)=O)cc2)n1 | 18.6 µg/mL (≈ 55.2 µM) |
| O=C(CCc1c[nH]c2ccccc12)N1CCCCCCC1 | 17.9 µg/mL (≈ 62.9 µM) |
| Cc1ccc(OCC(=O)N2CC(C)CC(C)C2)c([N+](=O)[O-])n1 (centres undefined) | > 46.1 µg/mL |
| O=C(c1cccs1)N1CCN(c2ccccc2)CC1 | > 40.9 µg/mL |
| COc1ccc(/C=C/C(=O)OCC(=O)NCc2ccccc2Cl)cc1OC | 8.3 µg/mL (≈ 21.3 µM) |
| CCOc1ccccc1NC(=O)Nc1ccsc1C(=O)OC | 7.9 µg/mL (≈ 24.7 µM) |
| CCOc1cccc2cc(C(=O)N3CC(C)OC(C)C3)c(=O)oc12 (centres undefined) | > 49.7 µg/mL |
| CCn1cc(C(=O)O)c(=O)c2cnc(N3CCN(C(=S)Nc4ccccc4)CC3)nc21 | 27.2 µg/mL (≈ 62 µM) |
| Cc1ccc(C(=O)Nc2scc(-c3ccccc3)c2C(=O)O)cc1 | > 50.6 µg/mL |
| COc1cccc(OCC(=O)NC2CCS(=O)(=O)C2)c1 (centres undefined) | > 44.9 µg/mL |
| O=c1c2ccccc2nc2n1C(CBr)CS2 (centres undefined) | > 44.6 µg/mL |
| Cc1cc(=O)[nH]c(NCc2ccccc2)n1 | 30.6 µg/mL (≈ 142 µM) |
| COc1ccc([C@@H]2OC2(C(N)=O)C(N)=O)cc1 | 32.2 µg/mL (≈ 136 µM) |
| Cc1cccc(N2CCN(C(=O)CNC(=O)Cc3ccccc3)CC2)c1C | > 54.8 µg/mL |
| Br.COc1ccc(C(=O)CN2Cc3ccccc3C2=N)cc1 | > 54.2 µg/mL |
| CCOC(=O)CSc1nc(C)c2cccc(C)c2n1 | 30.6 µg/mL (≈ 111 µM) |
| O=C(COC(=O)C1CCCC1)Nc1cccc(Cl)c1Cl | 5.9 µg/mL (≈ 18.7 µM) |

| SMILES | solubility kinetic |
| --- | --- |
| O=C(NCCOc1cccc2cccnc12)c1cccs1 | > 44.8 µg/mL |
| Cc1ccc(CNC(=O)CCCc2ccccc2)cc1 | 9.2 µg/mL (≈ 34.4 µM) |
| CCOc1ncccc1C(=O)N(CC)CC(=O)NCc1ccc(F)cc1 | > 53.9 µg/mL |
| O=C(NCc1cccnc1)Nc1cccc(C(F)(F)F)c1 | > 44.3 µg/mL |
| Cc1cnc([N+](=O)[O-])n1CCOC(=O)NC(=O)c1ccc(F)cc1 | > 50.4 µg/mL |
| CC(NS(=O)(=O)c1cc(C(F)(F)F)ccc1Cl)C(=O)N(C)C1CCN(C)CC1 (centres undefined) | > 66.3 µg/mL |
| CC(=O)NC(C)C(=O)OCC(=O)c1ccc(-c2ccccc2)cc1 (centres undefined) | 21.9 µg/mL (≈ 67.3 µM) |
| CN(C(=O)c1coc(=O)c2ccccc12)c1ccccc1Cl | 44.2 µg/mL (≈ 141 µM) |
| CC(C)(C)C(=O)OCc1nc(-c2ccc(C(F)(F)F)cc2)cs1 | < 0.7 µg/mL |
| Cc1ccc(NC(=O)Nc2ccon2)cc1Cl | 4 µg/mL (≈ 15.9 µM) |
| O=C(/C=C/c1ccc([N+](=O)[O-])cc1)OCC(=O)c1ccc[nH]1 | 3 µg/mL (≈ 9.99 µM) |
| CC(C)c1nc(SCC(=O)NC2CCCC2)c2ccccc2n1 | 6.1 µg/mL (≈ 18.5 µM) |
| Fc1cc(Cl)c(OCc2noc(-c3ccsc3)n2)c(Cl)c1 | 0.5 µg/mL (≈ 1.45 µM) |
| Cc1ccc(SCC(=O)Nc2ccc3c(c2)C(=O)N(C)C3=O)cc1 | 3.2 µg/mL (≈ 9.4 µM) |
| COc1ccc(OC)c(NC(=O)COC(=O)CCCN=C2NS(=O)(=O)c3ccccc32)c1 | 6.4 µg/mL (≈ 13.9 µM) |
| CCOC(=O)Cn1nc(C)c([N+](=O)[O-])c1C | > 34.1 µg/mL |
| Cc1ccc(S(=O)(=O)NC(=O)Nc2c(C)cccc2C)cc1 | 33.6 µg/mL (≈ 106 µM) |
| COc1ccc(C2C(C#N)=C(N)OC3=C2C(=O)CCC3)cc1OC (centres undefined) | > 49 µg/mL |
| CS(=O)(=O)N(CC(=O)NC1CCCCC1)c1cccc(F)c1 | 48.1 µg/mL (≈ 146 µM) |
| COc1ccc(S(=O)(=O)N2CCN(C)CC2)c(C)c1 | > 42.7 µg/mL |
| Cc1cccnc1NC(=O)CCNC(=O)c1ccccc1Cl | > 47.7 µg/mL |
| COc1cccc2c1O/C(=N\O)C(C(=O)Nc1cccc(C)c1C)C2 (centres undefined) | > 51.1 µg/mL |
| OCCC1CN(Cc2nc3ccccc3[nH]2)CCN1C1CCCC1 (centres undefined) | > 49.3 µg/mL |
| Oc1cc2c(cc1CN1CCN(c3ncccn3)CC1)OCO2 | 17.2 µg/mL (≈ 54.7 µM) |

| SMILES | solubility kinetic |
| --- | --- |
| O=C(CCS(=O)(=O)c1ccccc1)OCc1ccc([N+](=O)[O-])cc1 | 32 µg/mL (≈ 91.6 µM) |
| O=C(Nc1ccccc1C(F)(F)F)C1CCCC1 | 30.4 µg/mL (≈ 118 µM) |
| Cc1csc2c(N3CCN(C(=O)NC(C)(C)C)CC3)ncnc12 | > 50 µg/mL |
| NC(=O)C1CCN(C(=O)c2cc3c(s2)CCCC3)CC1 | 43.7 µg/mL (≈ 149 µM) |
| COc1ccccc1NC(=S)N1CCCc2ccccc21 | 22.9 µg/mL (≈ 76.7 µM) |
| CCN(CC)c1ccc(/C=C(\C#N)C(N)=O)cc1 | > 36.5 µg/mL |
| Cc1ccc(/C=C/C(=O)NCCc2ccccc2)o1 | 33.9 µg/mL (≈ 133 µM) |
| Cc1ccc(CNC(=S)NC2CCC(C(C)(C)C)CC2)cc1 (centres undefined) | < 0.3 µg/mL |
| Nc1nc2c(F)c(F)c(F)cc2s1 | 21.7 µg/mL (≈ 106 µM) |
| Cc1cc(OCC(O)CNC(C)c2ccccc2)ccc1C(C)C.Cl (centres undefined) | 45.3 µg/mL |
| Cc1ccc(NS(=O)(=O)c2cccs2)c(C)c1 | 39.1 µg/mL (≈ 146 µM) |
| CCOC1=C/C(=C/c2c(N)n3oc(C)cc3nc2=O)C=CC1=O | 11.9 µg/mL (≈ 38 µM) |
| O=Nc1[nH]c(=O)c(/C=C(\O)c2ccccc2)nc1NO | 33.8 µg/mL (≈ 123 µM) |
| O=C1C2CCN(CC2)C12CC2c1ccc(C(F)(F)F)cc1 (centres undefined) | 23.9 µg/mL (≈ 80.9 µM) |
| O=C(CN1CCOCC1)Nc1c(Cl)cc(Cl)cc1Cl | > 48.5 µg/mL |
| N/C(=N\OC(=O)c1ccc(Cl)cc1Cl)c1ccncc1 | 16.5 µg/mL (≈ 53.2 µM) |
| Cc1ccc(NC(=O)CN(C)C(=O)C2CC(=O)N(Cc3ccccc3)C2)cc1 (centres undefined) | 44.7 µg/mL (≈ 118 µM) |
| C=CCNC(=O)c1ccccc1NC(=O)C1CC(=O)N(C(C)C)C1 (centres undefined) | > 49.4 µg/mL |
| COC(=O)c1ccc(C(=O)OC)c(NC(=O)C2CCCO2)c1 (centres undefined) | 45.3 µg/mL (≈ 147 µM) |
| CC1c2cccn2CCN1S(=O)(=O)c1ccc(F)cc1 (centres undefined) | > 44.2 µg/mL |
| CCCOc1ccccc1NC(=O)c1ccc([N+](=O)[O-])cc1 | 4.1 µg/mL (≈ 13.7 µM) |
| COc1cc(/C=C/C(=O)OCC(=O)c2ccc[nH]2)cc(OC)c1OC | 9.4 µg/mL (≈ 27.2 µM) |
| O=C(CN1CCC(c2nc3ccccc3s2)CC1)N1CCCCC1 | > 51.5 µg/mL |

Source: PubChem BioAssay AID1996
